Measurements published in patent publication US20210290644A1, “COMPOUNDS AND METHODS FOR TREATING FUNGAL INFECTIONS” (Amplyx Pharmaceuticals, Inc., priority 2018, published 2021).
Where “and” joins values, the source holds several entries; their conditions need not be identical. Identical values can stand only once.

Assay: Study #1 Phase 1: plasma and urine pharmacokinetics of Compound 1 and Compound 1A after IV infusion of Compound 1 (SAD, MAD, loading regimen)
Details: both, human, plasma; for Vd: Vz
[1] = 200 mg, Cohort 4: Compound 1 200 mg/3 hr IV, single dose, geometric mean [geometric %CV]
[2] = 275 mg, Cohort 5: Compound 1 275 mg/3 hr IV, single dose, geometric mean [geometric %CV]
[3] = 300 mg, Cohort 9: Compound 1 300 mg/3 hr IV QD × 14 days, Day 14, geometric mean
[4] = 600 mg, Cohort 10: Compound 1 600 mg/3 hr IV QD × 14 days, Day 14, geometric mean
[5] = 600 mg, Cohort 12 loading regimen: Compound 1 600 mg/1 hr IV QD, Day 7, geometric mean
[6] = 1000 mg, Cohort 11: Compound 1 1,000 mg/0.5 hr IV, single dose, geometric mean
[7] = 1000 mg, Cohort 11: Compound 1 1,000 mg/1 hr IV, single dose, geometric mean
[8] = 1000 mg, Cohort 11: Compound 1 1,000 mg/2 hr IV, single dose, geometric mean
[9] = 1000 mg, Cohort 11: Compound 1 1,000 mg/3 hr IV, single dose, geometric mean

From the text: This was a Phase 1, first-in-human, randomized, double-blind, placebo-controlled single ascending dose (SAD) and multiple ascending dose (MAD) escalation study of 120 healthy male and female subjects. The objectives of the study were to evaluate the safety, tolerability, and pharmacokinetics of single and multiple doses of Compound 1 administered by intravenous (IV) infusion.
In the single ascending dose (SAD) phase, Cohorts 1 to 6 and 11A to 11D received single doses. For Cohorts 11A to 11D, the infusion time varied from 0.5 to 3 hours to evaluate the relationship between C., and tolerability. In the multiple ascending dose (MAD) phase, Cohorts 7 to 10 received multiple doses over 14 days, and Cohort 12 examined the feasibility of a loading dose regimen.
Blood samples for the determination of Compound 1 and Compound 1A plasma concentrations were collected before and at appropriate times during all single- and multiple-dose administrations of Compound 1. For SAD Cohorts 1 to 6, urine samples for the determination of Compound 1A were collected through 48 hrs after dosing.
Eighty (80) subjects were enrolled into SAD Cohorts 1 to 6 and 11A to 11D. Within each cohort, six subjects were randomized to Compound 1 and two subjects to placebo. All 60 subjects randomized to Compound 1 completed dosing. Fifty-nine (59) subjects completed the study.
Forty (40) subjects were enrolled into MAD Cohorts 7 to 10 and Loading Dose Cohort 12. Within each cohort, six subjects were randomized to Compound 1 and two subjects to placebo.
The PK analysis population therefore consisted of 60 subjects in the SAD phase and 28 subjects in the MAD phase.

In the case of `Nc1ncccc1-c1cc(Cc2ccc(COc3ccccn3)cc2)no1` [Compound 1A], the Vd (100 mg, Cohort 3: Compound 1 100 mg/3 hr IV, single dose, geometric mean [geometric %CV]) is reported as 115 L and 1.88 L/kg, the AUC(0-t) (150 mg, AUC(0-24), Cohort 8: Compound 1 150 mg/3 hr IV QD × 14 days, Day 1, geometric mean) is reported as 19.4 µg·h/mL and the AUC(0-t) (150 mg, AUC(0-24), Cohort 8: Compound 1 150 mg/3 hr IV QD × 14 days, Day 7, geometric mean) is reported as 48.7 µg·h/mL. For the same molecule, the Cmax (150 mg, Cohort 8: Compound 1 150 mg/3 hr IV QD × 14 days, Day 1, geometric mean) was 1860 ng/mL, the Cmax (150 mg, Cohort 8: Compound 1 150 mg/3 hr IV QD × 14 days, Day 7, geometric mean) was 3090 ng/mL and the Tmax (150 mg, Cohort 8: Compound 1 150 mg/3 hr IV QD × 14 days, Day 1, median) was 3 h. The Tmax (150 mg, Cohort 8: Compound 1 150 mg/3 hr IV QD × 14 days, Day 7, median) was 3 h, the Tmax (150 mg, Cohort 8: Compound 1 150 mg/3 hr IV QD × 14 days, Day 14, median) was 3.02 h and the AUC(0-t) (200 mg, AUC(0-24), Cohort 4: Compound 1 200 mg/3 hr IV, single dose, geometric mean [geometric %CV]) was 20.7 µg·h/mL. The AUC(0-inf) [1] was 83.2 µg·h/mL, the Cmax [1] was 2410 ng/mL and the Tmax (200 mg, Cohort 4: Compound 1 200 mg/3 hr IV, single dose, median) was 3 h. The Vd [1] was 178 L and 2.46 L/kg, the AUC(0-t) (275 mg, AUC(0-24), Cohort 5: Compound 1 275 mg/3 hr IV, single dose, geometric mean [geometric %CV]) was 37.1 µg·h/mL and the AUC(0-t) (275 mg, AUC(0-t), Cohort 5: Compound 1 275 mg/3 hr IV, single dose, geometric mean [geometric %CV]) was 114 µg·h/mL. The AUC(0-inf) [2] was 120 µg·h/mL, the Cmax [2] was 3960 ng/mL and the Tmax (275 mg, Cohort 5: Compound 1 275 mg/3 hr IV, single dose, median) was 3 h. The Vd [2] was 123 L and 1.75 L/kg, the AUC(0-t) (300 mg, AUC(0-24), Cohort 9: Compound 1 300 mg/3 hr IV QD × 14 days, Day 1, geometric mean) was 37.1 µg·h/mL and the AUC(0-t) (300 mg, AUC(0-24), Cohort 9: Compound 1 300 mg/3 hr IV QD × 14 days, Day 7, geometric mean) was 104 µg·h/mL. The AUC(0-t) (300 mg, AUC(0-24), Cohort 9: Compound 1 300 mg/3 hr IV QD × 14 days, Day 14, geometric mean) was 118 µg·h/mL, the Cmax (300 mg, Cohort 9: Compound 1 300 mg/3 hr IV QD × 14 days, Day 1, geometric mean) was 3690 ng/mL and the Cmax (300 mg, Cohort 9: Compound 1 300 mg/3 hr IV QD × 14 days, Day 7, geometric mean) was 6650 ng/mL. The Cmax [3] was 7520 ng/mL, the Tmax (300 mg, Cohort 9: Compound 1 300 mg/3 hr IV QD × 14 days, Day 1, median) was 3 h and the Tmax (300 mg, Cohort 9: Compound 1 300 mg/3 hr IV QD × 14 days, Day 7, median) was 3 h. The Tmax (300 mg, Cohort 9: Compound 1 300 mg/3 hr IV QD × 14 days, Day 14, median) was 3.02 h, the Vd [3] was 148 L and 2.22 L/kg and the Tmax (350 mg, Cohort 6: Compound 1 350 mg/3 hr IV, single dose, median) was 3 h. It also gave an AUC(0-t) (600 mg, AUC(0-24), Cohort 10: Compound 1 600 mg/3 hr IV QD × 14 days, Day 1, geometric mean) of 72.7 µg·h/mL, an AUC(0-t) (600 mg, AUC(0-24), Cohort 10: Compound 1 600 mg/3 hr IV QD × 14 days, Day 7, geometric mean) of 217 µg·h/mL and an AUC(0-t) (600 mg, AUC(0-24), Cohort 10: Compound 1 600 mg/3 hr IV QD × 14 days, Day 14, geometric mean) of 245 µg·h/mL. For the same molecule, the AUC(0-t) (600 mg, AUC(0-24), Cohort 12 loading regimen: Compound 1 600 mg/1 hr IV QD, Day 4, geometric mean) was 219 µg·h/mL, the AUC(0-t) (600 mg, AUC(0-24), Cohort 12 loading regimen: Compound 1 600 mg/1 hr IV QD, Day 7, geometric mean) was 201 µg·h/mL and the Cmax (600 mg, Cohort 10: Compound 1 600 mg/3 hr IV QD × 14 days, Day 1, geometric mean) was 7570 ng/mL. It also gave a Cmax (600 mg, Cohort 10: Compound 1 600 mg/3 hr IV QD × 14 days, Day 7, geometric mean) of 14500 ng/mL, a Cmax [4] of 15400 ng/mL and a Cmax (600 mg, Cohort 12 loading regimen: Compound 1 600 mg/1 hr IV QD, Day 4, geometric mean) of 17900 ng/mL. For the same molecule, the Cmax [5] was 17700 ng/mL, the Tmax (600 mg, Cohort 10: Compound 1 600 mg/3 hr IV QD × 14 days, Day 1, median) was 3 h and the Tmax (600 mg, Cohort 10: Compound 1 600 mg/3 hr IV QD × 14 days, Day 7, median) was 3.03 h. It also gave a Tmax (600 mg, Cohort 10: Compound 1 600 mg/3 hr IV QD × 14 days, Day 14, median) of 3 h, a Tmax (600 mg, Cohort 12 loading regimen: Compound 1 600 mg/1 hr IV QD, Day 4, median) of 1 h and a Tmax (600 mg, Cohort 12 loading regimen: Compound 1 600 mg/1 hr IV QD, Day 7, median) of 1 h. The Vd [4] was 175 L and 2.75 L/kg, the Vd [5] was 162 L and 2.27 L/kg and the AUC(0-t) (1000 mg, AUC(0-24), Cohort 11: Compound 1 1,000 mg/0.5 hr IV, single dose, geometric mean) was 131 µg·h/mL. It also gave an AUC(0-t) (1000 mg, AUC(0-24), Cohort 11: Compound 1 1,000 mg/1 hr IV, single dose, geometric mean) of 134 µg·h/mL, an AUC(0-t) (1000 mg, AUC(0-24), Cohort 11: Compound 1 1,000 mg/2 hr IV, single dose, geometric mean) of 130 µg·h/mL and an AUC(0-t) (1000 mg, AUC(0-24), Cohort 11: Compound 1 1,000 mg/3 hr IV, single dose, geometric mean) of 117 µg·h/mL. For the same molecule, the AUC(0-t) (1000 mg, AUC(0-24), Cohort 12 loading regimen: Compound 1 1,000 mg/2 hr IV at 0 & 9 hr, Day 1, geometric mean) was 211 µg·h/mL, the AUC(0-t) (1000 mg, AUC(0-t), Cohort 11: Compound 1 1,000 mg/1 hr IV, single dose, geometric mean) was 481 µg·h/mL and the AUC(0-t) (1000 mg, AUC(0-t), Cohort 11: Compound 1 1,000 mg/2 hr IV, single dose, geometric mean) was 476 µg·h/mL. The AUC(0-inf) [6] was 434 µg·h/mL, the AUC(0-inf) [7] was 536 µg·h/mL and the AUC(0-inf) [8] was 541 µg·h/mL. For the same molecule, the AUC(0-inf) [9] was 400 µg·h/mL, the Cmax [6] was 24900 ng/mL and the Cmax [7] was 20100 ng/mL. For the same molecule, the Cmax [8] was 15600 ng/mL, the Cmax [9] was 11900 ng/mL and the Cmax (1000 mg, Cohort 12 loading regimen: Compound 1 1,000 mg/2 hr IV at 0 & 9 hr, Day 1, geometric mean) was 15700 ng/mL. It also gave a Tmax (1000 mg, Cohort 11: Compound 1 1,000 mg/0.5 hr IV, single dose, median) of 0.52 h, a Tmax (1000 mg, Cohort 11: Compound 1 1,000 mg/1 hr IV, single dose, median) of 1.02 h and a Tmax (1000 mg, Cohort 11: Compound 1 1,000 mg/2 hr IV, single dose, median) of 2.02 h. The Tmax (1000 mg, Cohort 11: Compound 1 1,000 mg/3 hr IV, single dose, median) was 3.02 h, the Tmax (1000 mg, Cohort 12 loading regimen: Compound 1 1,000 mg/2 hr IV at 0 & 9 hr, Day 1, median) was 11 h and the Vd [6] was 141 L and 19.7 L/kg. For the same molecule, the Vd [7] was 139 L and 2.11 L/kg, the Vd [8] was 153 L and 2.43 L/kg and the Vd [9] was 153 L and 2.02 L/kg.
